{
  "source": "patent US20140142094A1",
  "about": "“KINASE INHIBITORS” (ICAHN SCHOOL OF MEDICINE AT MOUNT SINAI, priority 2011, published 2014)",
  "key": {"[1]": {"tested_on": "K562 (chronic myelogenous leukemia; leukemia cell line +ve for Bcr-Abl)", "assay": "Cytotoxicity on K562 cancer cell line", "format": "cell-based", "conditions": "Homo sapiens; K562 cells, 96 h treatment", "experimental": "(§1) The effect of the compounds described herein on tumor cells was determined by the assay described by Latham et al., Oncogene 12:827-837 (1996). Tumor cells K562 (chronic myelogenous leukemia; leukemia cell line +ve for Bcr-Abl) or DU145 (prostate cancer) were plated in 12-well dishes at a cell density of 2.5×10^4 cells per well. The plated cells were treated 24h. later with a DMSO solution of a compound as described herein at multiple concentrations ranging from 0.01 μM to 100 μM. The plates were examined 96 h. later under an inverted microscope, Olympus CK-2 using a 10× objective, and compound activity was noted by physical observation. When necessary, the total number of viable cells was determined by trypsinizing the wells and counting the number of viable cells, as determined by trypan blue exclusion, using a hemacytometer."}, "DU145 (prostate cancer)": {"tested_on": "DU145 (prostate cancer)", "assay": "Cytotoxicity on DU145 cancer cell line", "format": "cell-based", "conditions": "Homo sapiens, DU-145; DU145 cells, 96 h treatment", "experimental": "as §1"}, "ABL1": {"biological_target": "T1, ABL1 (Homo sapiens, UniProt P00519)", "T1 construct": "purchased Reaction Biology Corporation", "assay": "Kinase inhibition assay (Reaction Biology)", "format": "biochemical", "conditions": "10 μM ATP; 5-dose IC50 mode", "experimental": "(§2) Kinase assays were performed at Reaction Biology Corporation. To a freshly prepared buffer solution was added the target kinase at a concentration of 20 μM. The contents were mixed gently, and then compound 1b dissolved in DMSO was added to the reaction mixture in the appropriate concentration. The mixture was incubated at room temperature for 30 min. prior to addition of ATP to initiate the reaction. Compound 1b was tested in a 5-dose IC50 mode with 10-fold serial dilutions starting at 10 μM. Staurosporine was used as a control compound in a 10-dose IC50 mode with 3-fold serial dilutions starting at 20 μM. Reaction was carried out at 10 μM ATP concentration."}, "ABL2/ARG": {"biological_target": "T2, ABL2/ARG (Homo sapiens, UniProt P42684)", "T2 construct": "purchased Reaction Biology Corporation", "assay": "Kinase inhibition assay (Reaction Biology)", "format": "biochemical", "conditions": "10 μM ATP; 5-dose IC50 mode", "experimental": "as §2"}, "FGR": {"biological_target": "T3, FGR (Homo sapiens, UniProt P09769)", "T3 construct": "purchased Reaction Biology Corporation", "assay": "Kinase inhibition assay (Reaction Biology)", "format": "biochemical", "conditions": "10 μM ATP; 5-dose IC50 mode", "experimental": "as §2"}, "PI3K-α": {"biological_target": "T4, PI3K-α (Homo sapiens, UniProt P42336)", "T4 construct": "purchased Reaction Biology Corporation", "assay": "Kinase inhibition assay (Reaction Biology)", "format": "biochemical", "conditions": "Table 2; 10 μM ATP; 5-dose IC50 mode", "experimental": "as §2"}, "PI3K-δ": {"biological_target": "T5, PI3K-δ (Homo sapiens, UniProt O00329)", "T5 construct": "purchased Reaction Biology Corporation", "assay": "Kinase inhibition assay (Reaction Biology)", "format": "biochemical", "conditions": "Table 2; 10 μM ATP; 5-dose IC50 mode", "experimental": "as §2"}, "RPIK2": {"biological_target": "T6, RPIK2 (Homo sapiens, UniProt O43353)", "T6 construct": "purchased Reaction Biology Corporation", "assay": "Kinase inhibition assay (Reaction Biology)", "format": "biochemical", "conditions": "10 μM ATP; 5-dose IC50 mode", "experimental": "as §2"}, "ABL1 (E255K)": {"biological_target": "T7, ABL1 (E255K) (Homo sapiens, UniProt P00519, E255K)", "T7 construct": "purchased Reaction Biology Corporation", "assay": "Inhibition of ABL mutants", "format": "biochemical", "conditions": "10 μM ATP; 5-dose IC50 mode", "experimental": "as §2"}, "ABL1 (G250E)": {"biological_target": "T8, ABL1 (G250E) (Homo sapiens, UniProt P00519, G250E)", "T8 construct": "purchased Reaction Biology Corporation", "assay": "Inhibition of ABL mutants", "format": "biochemical", "conditions": "10 μM ATP; 5-dose IC50 mode", "experimental": "as §2"}, "ABL1 (H396P)": {"biological_target": "T9, ABL1 (H396P) (Homo sapiens, UniProt P00519, H396P)", "T9 construct": "purchased Reaction Biology Corporation", "assay": "Inhibition of ABL mutants", "format": "biochemical", "conditions": "10 μM ATP; 5-dose IC50 mode", "experimental": "as §2"}, "ABL1 (M351T)": {"biological_target": "T10, ABL1 (M351T) (Homo sapiens, UniProt P00519, M351T)", "T10 construct": "purchased Reaction Biology Corporation", "assay": "Inhibition of ABL mutants", "format": "biochemical", "conditions": "10 μM ATP; 5-dose IC50 mode", "experimental": "as §2"}, "ABL1 (Q252H)": {"biological_target": "T11, ABL1 (Q252H) (Homo sapiens, UniProt P00519, Q252H)", "T11 construct": "purchased Reaction Biology Corporation", "assay": "Inhibition of ABL mutants", "format": "biochemical", "conditions": "10 μM ATP; 5-dose IC50 mode", "experimental": "as §2"}, "ABL1 (T315I)": {"biological_target": "T12, ABL1 (T315I) (Homo sapiens, UniProt P00519, T315I)", "T12 construct": "purchased Reaction Biology Corporation", "assay": "Inhibition of ABL mutants", "format": "biochemical", "conditions": "10 μM ATP; 5-dose IC50 mode", "experimental": "as §2"}, "ABL1 (Y253F)": {"biological_target": "T13, ABL1 (Y253F) (Homo sapiens, UniProt P00519, Y253F)", "T13 construct": "purchased Reaction Biology Corporation", "assay": "Inhibition of ABL mutants", "format": "biochemical", "conditions": "10 μM ATP; 5-dose IC50 mode", "experimental": "as §2"}, "PIK3-α": {"biological_target": "T14, PIK3-α (Homo sapiens, UniProt P42336)", "T14 construct": "purchased Reaction Biology Corporation", "T14 sequence (P42336 whole entry)": "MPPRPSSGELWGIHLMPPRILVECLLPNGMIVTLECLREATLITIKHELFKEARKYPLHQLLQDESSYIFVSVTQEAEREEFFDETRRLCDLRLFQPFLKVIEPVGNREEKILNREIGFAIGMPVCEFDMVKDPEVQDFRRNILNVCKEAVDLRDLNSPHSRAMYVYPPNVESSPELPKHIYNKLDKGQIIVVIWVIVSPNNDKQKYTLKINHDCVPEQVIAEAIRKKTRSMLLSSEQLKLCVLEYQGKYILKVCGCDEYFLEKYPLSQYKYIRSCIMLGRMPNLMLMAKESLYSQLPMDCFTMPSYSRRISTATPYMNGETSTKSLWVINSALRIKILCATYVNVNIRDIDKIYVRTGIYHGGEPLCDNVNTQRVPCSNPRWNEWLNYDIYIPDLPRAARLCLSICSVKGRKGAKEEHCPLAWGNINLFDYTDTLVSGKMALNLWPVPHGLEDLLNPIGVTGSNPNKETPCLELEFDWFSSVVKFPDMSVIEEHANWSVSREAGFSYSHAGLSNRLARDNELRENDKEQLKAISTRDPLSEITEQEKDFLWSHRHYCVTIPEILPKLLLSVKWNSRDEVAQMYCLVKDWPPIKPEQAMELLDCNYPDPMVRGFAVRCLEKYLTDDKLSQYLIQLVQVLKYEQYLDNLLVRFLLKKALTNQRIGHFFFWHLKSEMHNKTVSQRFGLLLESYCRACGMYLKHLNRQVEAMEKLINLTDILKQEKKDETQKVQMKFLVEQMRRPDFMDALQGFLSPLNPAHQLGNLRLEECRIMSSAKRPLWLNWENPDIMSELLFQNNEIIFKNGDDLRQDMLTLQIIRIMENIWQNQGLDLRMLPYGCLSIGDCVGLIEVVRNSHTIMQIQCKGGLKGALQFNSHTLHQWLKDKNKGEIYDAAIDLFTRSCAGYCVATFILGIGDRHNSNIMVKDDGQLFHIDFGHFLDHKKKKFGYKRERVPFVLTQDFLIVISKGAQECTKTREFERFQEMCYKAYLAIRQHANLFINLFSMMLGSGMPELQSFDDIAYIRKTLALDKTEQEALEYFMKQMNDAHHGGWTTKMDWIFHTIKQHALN", "T14 sequence (P27986 whole entry partner)": "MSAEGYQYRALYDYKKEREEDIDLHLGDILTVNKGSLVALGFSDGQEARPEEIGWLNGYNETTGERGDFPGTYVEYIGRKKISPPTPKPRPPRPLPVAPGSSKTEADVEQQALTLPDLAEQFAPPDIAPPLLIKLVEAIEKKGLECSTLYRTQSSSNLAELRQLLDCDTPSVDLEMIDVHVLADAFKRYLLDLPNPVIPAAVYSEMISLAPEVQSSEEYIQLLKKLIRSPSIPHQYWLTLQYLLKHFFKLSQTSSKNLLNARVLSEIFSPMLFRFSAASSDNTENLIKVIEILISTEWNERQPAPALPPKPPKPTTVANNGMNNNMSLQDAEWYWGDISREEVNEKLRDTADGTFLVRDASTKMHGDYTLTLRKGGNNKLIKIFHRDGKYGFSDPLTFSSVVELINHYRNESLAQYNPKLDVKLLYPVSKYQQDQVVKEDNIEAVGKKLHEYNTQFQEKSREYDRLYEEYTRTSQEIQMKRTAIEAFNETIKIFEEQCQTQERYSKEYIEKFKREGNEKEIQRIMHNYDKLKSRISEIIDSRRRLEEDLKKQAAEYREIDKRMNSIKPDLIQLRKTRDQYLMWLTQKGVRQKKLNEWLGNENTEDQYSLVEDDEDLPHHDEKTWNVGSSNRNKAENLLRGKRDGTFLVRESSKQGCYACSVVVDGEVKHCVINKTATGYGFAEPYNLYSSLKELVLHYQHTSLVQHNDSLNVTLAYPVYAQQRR", "assay": "Inhibition of PI3K kinases", "format": "biochemical", "conditions": "Table 4; 10 μM ATP; 5-dose IC50 mode", "experimental": "as §2, with “were mixed gently and then” for “were mixed gently, and then”, “at 20 µM. Reaction was” for “at 20 μM. Reaction was”"}, "PIK3-β": {"biological_target": "T15, PIK3-β (Homo sapiens, UniProt P42338)", "T15 construct": "purchased Reaction Biology Corporation", "T15 sequence (P42338 whole entry)": "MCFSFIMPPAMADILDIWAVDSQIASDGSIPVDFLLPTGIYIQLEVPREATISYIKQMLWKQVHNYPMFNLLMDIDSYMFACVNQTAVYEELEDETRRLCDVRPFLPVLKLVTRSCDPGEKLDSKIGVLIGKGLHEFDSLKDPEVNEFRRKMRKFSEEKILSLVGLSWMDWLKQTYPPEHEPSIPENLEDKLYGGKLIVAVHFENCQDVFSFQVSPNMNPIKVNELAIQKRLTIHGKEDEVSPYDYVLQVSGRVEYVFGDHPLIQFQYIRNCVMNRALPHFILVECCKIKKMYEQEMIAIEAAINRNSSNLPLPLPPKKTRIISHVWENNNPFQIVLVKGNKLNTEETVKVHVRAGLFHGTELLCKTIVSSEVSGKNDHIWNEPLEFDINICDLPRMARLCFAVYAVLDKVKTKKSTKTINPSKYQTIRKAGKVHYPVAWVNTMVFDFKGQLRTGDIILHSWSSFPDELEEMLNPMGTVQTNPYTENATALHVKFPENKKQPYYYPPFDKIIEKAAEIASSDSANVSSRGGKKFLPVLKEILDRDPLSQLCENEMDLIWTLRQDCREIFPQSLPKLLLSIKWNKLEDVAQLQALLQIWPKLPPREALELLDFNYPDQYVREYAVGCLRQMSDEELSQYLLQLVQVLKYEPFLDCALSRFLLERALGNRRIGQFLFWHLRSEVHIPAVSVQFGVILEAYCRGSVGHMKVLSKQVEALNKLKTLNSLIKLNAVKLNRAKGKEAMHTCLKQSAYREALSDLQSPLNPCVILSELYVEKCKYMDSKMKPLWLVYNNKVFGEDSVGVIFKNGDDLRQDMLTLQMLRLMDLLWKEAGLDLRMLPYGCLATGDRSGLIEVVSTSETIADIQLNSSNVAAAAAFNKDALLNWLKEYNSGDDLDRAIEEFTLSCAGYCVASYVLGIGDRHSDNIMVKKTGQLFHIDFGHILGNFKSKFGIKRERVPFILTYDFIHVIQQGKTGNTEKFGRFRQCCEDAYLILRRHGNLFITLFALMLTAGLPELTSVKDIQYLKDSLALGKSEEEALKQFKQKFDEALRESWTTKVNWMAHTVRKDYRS", "T15 sequence (P27986 whole entry partner)": "as the sequence (P27986 whole entry partner) above", "assay": "Inhibition of PI3K kinases", "format": "biochemical", "conditions": "Table 4; 10 μM ATP; 5-dose IC50 mode", "experimental": "as §2, with “were mixed gently and then” for “were mixed gently, and then”, “at 20 µM. Reaction was” for “at 20 μM. Reaction was”"}, "PIK3-γ": {"biological_target": "T16, PIK3-γ (Homo sapiens, UniProt P48736)", "T16 construct": "purchased Reaction Biology Corporation", "T16 sequence (P48736 whole entry)": "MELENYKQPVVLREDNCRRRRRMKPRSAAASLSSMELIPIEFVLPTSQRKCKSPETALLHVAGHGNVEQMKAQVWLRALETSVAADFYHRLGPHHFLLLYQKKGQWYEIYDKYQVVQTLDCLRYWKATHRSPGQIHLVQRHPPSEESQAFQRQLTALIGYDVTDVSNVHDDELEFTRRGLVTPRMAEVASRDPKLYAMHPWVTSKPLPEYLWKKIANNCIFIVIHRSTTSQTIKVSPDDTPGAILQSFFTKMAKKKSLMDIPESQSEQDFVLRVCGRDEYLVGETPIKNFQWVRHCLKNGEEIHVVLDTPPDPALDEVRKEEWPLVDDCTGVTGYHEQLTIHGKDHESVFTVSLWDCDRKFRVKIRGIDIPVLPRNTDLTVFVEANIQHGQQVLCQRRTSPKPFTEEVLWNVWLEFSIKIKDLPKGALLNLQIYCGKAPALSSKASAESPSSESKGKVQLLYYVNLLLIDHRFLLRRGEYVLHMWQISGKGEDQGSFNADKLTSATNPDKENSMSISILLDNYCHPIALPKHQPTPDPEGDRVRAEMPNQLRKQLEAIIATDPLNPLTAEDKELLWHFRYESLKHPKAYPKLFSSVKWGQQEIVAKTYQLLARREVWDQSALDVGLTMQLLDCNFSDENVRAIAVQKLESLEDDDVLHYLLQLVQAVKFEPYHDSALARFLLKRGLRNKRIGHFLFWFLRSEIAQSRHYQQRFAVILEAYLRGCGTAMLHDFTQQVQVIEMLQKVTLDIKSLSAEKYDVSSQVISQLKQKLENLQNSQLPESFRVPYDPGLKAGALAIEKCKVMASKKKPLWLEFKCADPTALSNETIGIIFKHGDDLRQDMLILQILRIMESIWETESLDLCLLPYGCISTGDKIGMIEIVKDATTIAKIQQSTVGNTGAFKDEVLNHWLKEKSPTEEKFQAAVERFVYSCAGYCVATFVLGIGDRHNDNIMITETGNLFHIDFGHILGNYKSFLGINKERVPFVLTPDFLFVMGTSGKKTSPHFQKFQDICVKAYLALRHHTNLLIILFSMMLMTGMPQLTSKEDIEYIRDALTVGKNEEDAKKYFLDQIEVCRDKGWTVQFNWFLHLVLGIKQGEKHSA", "assay": "Inhibition of PI3K kinases", "format": "biochemical", "conditions": "Table 4; 10 μM ATP; 5-dose IC50 mode", "experimental": "as §2, with “were mixed gently and then” for “were mixed gently, and then”, “at 20 µM. Reaction was” for “at 20 μM. Reaction was”"}, "PIK3-δ": {"biological_target": "T17, PIK3-δ (Homo sapiens, UniProt O00329)", "T17 construct": "purchased Reaction Biology Corporation", "T17 sequence (O00329 whole entry)": "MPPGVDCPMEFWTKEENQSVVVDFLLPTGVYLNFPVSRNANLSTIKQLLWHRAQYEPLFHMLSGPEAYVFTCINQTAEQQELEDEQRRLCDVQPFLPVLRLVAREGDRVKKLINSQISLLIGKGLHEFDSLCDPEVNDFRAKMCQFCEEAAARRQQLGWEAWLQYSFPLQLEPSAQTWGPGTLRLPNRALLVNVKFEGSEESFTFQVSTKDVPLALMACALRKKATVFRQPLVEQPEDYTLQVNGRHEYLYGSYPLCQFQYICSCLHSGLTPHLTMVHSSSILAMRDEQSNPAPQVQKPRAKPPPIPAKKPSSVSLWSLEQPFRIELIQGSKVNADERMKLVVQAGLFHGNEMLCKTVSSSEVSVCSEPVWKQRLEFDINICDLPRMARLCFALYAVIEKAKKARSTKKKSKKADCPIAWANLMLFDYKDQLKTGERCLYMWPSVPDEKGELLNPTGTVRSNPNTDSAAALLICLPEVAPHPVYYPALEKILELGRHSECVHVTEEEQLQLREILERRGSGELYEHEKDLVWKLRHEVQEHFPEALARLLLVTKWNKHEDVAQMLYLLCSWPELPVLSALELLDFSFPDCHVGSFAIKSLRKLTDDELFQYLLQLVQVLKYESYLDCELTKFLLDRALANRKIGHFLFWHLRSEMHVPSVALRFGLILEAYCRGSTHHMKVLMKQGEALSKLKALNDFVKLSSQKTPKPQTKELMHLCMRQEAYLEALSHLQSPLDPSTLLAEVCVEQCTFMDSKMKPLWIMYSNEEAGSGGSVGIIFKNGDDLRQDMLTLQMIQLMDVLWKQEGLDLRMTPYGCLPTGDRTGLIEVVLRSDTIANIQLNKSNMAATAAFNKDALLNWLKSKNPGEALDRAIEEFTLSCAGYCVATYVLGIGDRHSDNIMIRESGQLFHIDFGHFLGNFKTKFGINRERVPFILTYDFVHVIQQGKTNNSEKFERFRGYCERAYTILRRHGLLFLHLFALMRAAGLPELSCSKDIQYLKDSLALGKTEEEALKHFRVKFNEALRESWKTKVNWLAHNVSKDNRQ", "T17 sequence (P27986 whole entry partner)": "as the sequence (P27986 whole entry partner) above", "assay": "Inhibition of PI3K kinases", "format": "biochemical", "conditions": "Table 4; 10 μM ATP; 5-dose IC50 mode", "experimental": "as §2, with “were mixed gently and then” for “were mixed gently, and then”, “at 20 µM. Reaction was” for “at 20 μM. Reaction was”"}},
  "data": [
    {"compound": "CN1CCN(c2ccc(Nc3ncc4c(n3)S/C(=C/c3ccc([N+](=O)[O-])cc3)C(=O)N4)cc2)CC1", "note": "[Compound 1b, (E)-2-(4-(4-Methylpiperazin-1-yl)phenylamino)-7-(4-nitrobenzylidene)-5H-pyrimido[4,5-b][1,4]thiazin-6(7H)-one]", "values": [
      {"measurement": "IC50", "setting": "[1]", "result": "< 1000", "unit": "nM"},
      {"measurement": "IC50", "setting": "DU145 (prostate cancer)", "result": "< 1000", "unit": "nM"},
      {"measurement": "IC50", "setting": "ABL1", "result": 19, "unit": "nM"},
      {"measurement": "IC50", "setting": "ABL2/ARG", "result": 30, "unit": "nM"},
      {"measurement": "IC50", "setting": "FGR", "result": 124, "unit": "nM"},
      {"measurement": "IC50", "setting": "PI3K-α", "result": 13, "unit": "nM"},
      {"measurement": "IC50", "setting": "PI3K-δ", "result": 20, "unit": "nM"},
      {"measurement": "IC50", "setting": "RPIK2", "result": 68, "unit": "nM"},
      {"measurement": "IC50", "setting": "ABL1 (E255K)", "result": 106, "unit": "nM"},
      {"measurement": "IC50", "setting": "ABL1 (G250E)", "result": 35, "unit": "nM"},
      {"measurement": "IC50", "setting": "ABL1 (H396P)", "result": 9, "unit": "nM"},
      {"measurement": "IC50", "setting": "ABL1 (M351T)", "result": 12, "unit": "nM"},
      {"measurement": "IC50", "setting": "ABL1 (Q252H)", "result": 10, "unit": "nM"},
      {"measurement": "IC50", "setting": "ABL1 (T315I)", "result": 2730, "unit": "nM"},
      {"measurement": "IC50", "setting": "ABL1 (Y253F)", "result": 60, "unit": "nM"},
      {"measurement": "IC50", "setting": "PIK3-α", "result": 4, "unit": "nM"},
      {"measurement": "IC50", "setting": "PIK3-β", "result": 10, "unit": "nM"},
      {"measurement": "IC50", "setting": "PIK3-γ", "result": 22, "unit": "nM"},
      {"measurement": "IC50", "setting": "PIK3-δ", "result": 7, "unit": "nM"}
    ]}
  ]
}
